# Test results from patent publication US10913765B2, “Liver specific delivery-based gemcitabine prodrug nucleoside cyclic phosphate compound, and application thereof” (ZHEJIANG PALO ALTO PHARMACEUTICALS, INC., priority 2017, dated 2021).
# Settings: human, 5 min, 25 μM, pH 7.4
# Description: Human liver microsomes (HLM) were purchased from IVT (In Vitro Technologies), lot number SSP, article number X008070.
# Enzymatic reaction was carried out in 100 mM KH2PO4 buffer solution (pH 7.4), the concentration of the test compounds was 25 M, the concentration of human liver microsomes was 2 mg/ml, and NADPH concentration was 2 mM. The reaction was initiated by NADPH finally added, and after reaction for 5 min in a constant-temperature shaking water bath kettle, 1.5 times of volume of methanol containing internal standard (PMPA) was immediately added to terminate the reaction.
# (§1) Centrifugation was carried out for 20 minutes at a maximum speed of 13,600 rpm using an Eppendorf tabletop centrifuge. Supernatant was taken, and after being blow-dried by a nitrogen blower, the supernatant was re-dissolved into a mobile phase A (0.1% formic acid v/v aqueous solution).
# (§2) Analytical column: Waters, Acquity UPLC HSS T3 column
# Column temperature: 40° C.
# (§3) Ion source: electrospray ionization source
# Ion mode: positive ion mode
# Capillary voltage: 3.0 kV
# Desolventizing airflow speed: 100 L/h
Compound,Conversion rate to dFdCMP relative to that of PA4001 [times],Conversion rate to dFdCMP relative to that of PA4003
Nc1ccn([C@@H]2O[C@H](COP3(=O)OCC[C@H](c4cc(F)cc(Cl)c4)O3)[C@@H](O)C2(F)F)c(=O)n1 (stereo partly drawn) [PA4002],1.0,about 7.3 times
Nc1ccn([C@@H]2O[C@H](COP3(=O)OCC[C@H](c4cc(Cl)ccc4F)O3)[C@@H](O)C2(F)F)c(=O)n1 (stereo partly drawn) [PA4004],1.3,~9.5 times

# Settings: human, 5 min, 25 μM, pH 7.4
# Remark: another data set of the same source
# Description: Human liver microsomes (HLM) were purchased from IVT (In Vitro Technologies), article number X008070, lot number IQF.
# Enzymatic reaction was carried out in 100 mM KH2PO4 buffer solution (pH 7.4), the concentration of the test compounds was 25 μM, the concentration of human liver microsomes was 2 mg/ml, and NADPH concentration was 2 mM. The reaction was initiated by NADPH finally added, and after reaction for 5 min in a constant-temperature shaking water bath kettle, 1.5 times of volume of methanol containing internal standard (PMPA) was immediately added to terminate the reaction.
# as §1, §2
# Column temperature: 40° C.
# as §3
# Ion mode: positive ion mode
# Capillary voltage: 3.0 kV
# Desolventizing airflow speed: 100 L/h
Compound,Activation Rate (rate of releasing monophosphate product dFdCMP) [pmol/min/mg HLM],Conversion rate to dFdCMP relative to that of PA4004
Nc1ccn([C@@H]2O[C@H](COP3(=O)OCC[C@H](c4cc(Cl)cc(Cl)c4)O3)[C@@H](O)C2(F)F)c(=O)n1 (stereo partly drawn) [PA4006],6.92 ± 0.01,
Nc1ccn([C@@H]2O[C@H](COP3(=O)OCC[C@H](c4ccc(F)c(Cl)c4)O3)[C@@H](O)C2(F)F)c(=O)n1 (stereo partly drawn) [PA4008],5.45 ± 0.12,
Nc1ccn([C@@H]2O[C@H](COP3(=O)OCC[C@H](c4cc(F)ccc4F)O3)[C@@H](O)C2(F)F)c(=O)n1 (stereo partly drawn) [PA4013],7.23 ± 0.53,
Nc1ccn([C@@H]2O[C@H](COP3(=O)OCC[C@H](c4ccc(F)c(F)c4)O3)[C@@H](O)C2(F)F)c(=O)n1 (stereo partly drawn) [PA4017],4.32 ± 0.76,

# Second part, the molecule after the results:
Activation Rate (rate of releasing monophosphate product dFdCMP) [pmol/min/mg HLM],Conversion rate to dFdCMP relative to that of PA4004,Compound
10.98 ± 1.23,,Nc1ccn([C@@H]2O[C@H](COP3(=O)OCC[C@H](c4cc(Cl)ccc4F)O3)[C@@H](O)C2(F)F)c(=O)n1 (stereo partly drawn) [PA4004]
10.45 ± 0.85,,Nc1ccn([C@@H]2O[C@H](COP3(=O)OCC[C@H](c4ccc(Cl)c(F)c4)O3)[C@@H](O)C2(F)F)c(=O)n1 (stereo partly drawn) [PA4009]
9.56 ± 0.07,,Nc1ccn([C@@H]2O[C@H](COP3(=O)OCC[C@H](c4cccc(Cl)c4F)O3)[C@@H](O)C2(F)F)c(=O)n1 (stereo partly drawn) [PA4010]
35.28 ± 0.81,~3.2 times,Nc1ccn([C@@H]2O[C@H](COP3(=O)OCC[C@H](c4cc(F)ccc4Cl)O3)[C@@H](O)C2(F)F)c(=O)n1 (stereo partly drawn) [PA4011]
38.95 ± 1.17,about 3.5 times,Nc1ccn([C@@H]2O[C@H](COP3(=O)OCC[C@H](c4cc(Cl)ccc4Cl)O3)[C@@H](O)C2(F)F)c(=O)n1 (stereo partly drawn) [PA4012]
6.49 ± 0.19,,Nc1ccn([C@@H]2O[C@H](COP3(=O)OCC[C@H](c4cccc(F)c4F)O3)[C@@H](O)C2(F)F)c(=O)n1 (stereo partly drawn) [PA4014]
7.62 ± 0.48,,Nc1ccn([C@@H]2O[C@H](COP3(=O)OCC[C@H](c4cccc(Cl)c4Cl)O3)[C@@H](O)C2(F)F)c(=O)n1 (stereo partly drawn) [PA4018]
5.25 ± 0.13,,Nc1ccn([C@@H]2O[C@H](COP3(=O)OCC[C@H](c4ccc(Cl)c(Cl)c4)O3)[C@@H](O)C2(F)F)c(=O)n1 (stereo partly drawn) [PA4021]
